This passage reports MIC and ED50 results from ChEMBL document CHEMBL4680273, “Teixobactin: A Paving Stone toward a New Class of Antibiotics?” (2020).

In brackets after ≈: the same amount, converted by molar mass.

Holding throughout (type): functional
Assay [1] relates to Staphylococcus aureus. Briefly: Antibacterial activity against Staphylococcus aureus TH4112 incubated for 16 to 20 hrs by CLSI-based broth microdilution method. The conditions noted are these: time 16-20 hrs.
Assay [2] deals with Staphylococcus aureus. In words: Antibacterial activity against methicillin- resistant Staphylococcus aureus TH4115 incubated for 16 to 20 hrs by CLSI-based broth microdilution method. The conditions noted are these: time 16-20 hrs.
The test system of assay [3] is Staphylococcus aureus. Briefly: Antibacterial activity against Staphylococcus aureus ATCC 29213 incubated for 20 hrs by CLSI-based broth microdilution checkerboard method.
For assay [4], the system named is Staphylococcus aureus. Briefly: Antibacterial activity against Staphylococcus aureus ATCC 29213 incubated for 16 hrs by two-fold serial dilution method.
In assay [5] the test system is Streptococcus salivarius. In words: Antibacterial activity against Streptococcus salivarius ATCC 13419 incubated for 16 hrs by two-fold serial dilution method.
The subject of assay [6] is Staphylococcus epidermidis. In words: Antibacterial activity against Staphylococcus epidermidis ATCC 14990 incubated for 16 hrs by two-fold serial dilution method.
Assay [7] deals with Bacillus subtilis. In words: Antibacterial activity against Bacillus subtilis ATCC 6051 incubated for 16 hrs by two-fold serial dilution method.
The subject of assay [8] is Enterococcus durans. In words: Antibacterial activity against Enterococcus durans ATCC 6056 incubated for 16 hrs by two-fold serial dilution method.
The test system of assay [9] is Staphylococcus aureus. In words: Antibacterial activity against methicillin resistant Staphylococcus aureus ATCC 33591 infected in iv dosed CD1 mouse model of septicemia assessed as protection against lethal infection administered as single dose starting from 1 hr post infection and measured 48 hrs post infection relative to control. The following applies: ATCC 33591, iv, time 47 hrs, read-out: PD50.

As for `CC[C@H](C)[C@H](NC(=O)[C@@H](Cc1ccc(-c2ccccc2)cc1)NC)C(=O)N[C@@H](CO)C(=O)N[C@H](CCCNC(=N)N)C(=O)N[C@@H](C(=O)N[C@H](C(=O)N[C@@H](CO)C(=O)N[C@H]1C(=O)N[C@@H](C)C(=O)N[C@@H](C[C@H]2CNC(=N)N2)C(=O)N[C@@H]([C@@H](C)CC)C(=O)O[C@H]1C)[C@@H](C)CC)[C@@H](C)CC`, the MIC in [1] and in assay [2] was 0.25 µg/mL (≈ 0.186 µM) in each case.
Regarding `CC[C@H](C)[C@H](NC(=O)[C@@H](Cc1ccccc1)NC)C(=O)N[C@@H](CO)C(=O)N[C@H](CCC(N)=O)C(=O)N[C@@H](C(=O)N(C)[C@H](C(=O)N[C@@H](CO)C(=O)N[C@H]1C(=O)N[C@@H](C)C(=O)N[C@@H](CCCCN)C(=O)N[C@@H]([C@@H](C)CC)C(=O)O[C@H]1C)[C@@H](C)CC)[C@@H](C)CC`, in [3], the MIC came out at 16 µg/mL.
Consider `CC[C@H](C)[C@H](NC(=O)[C@@H](Cc1ccccc1)NC)C(=O)N[C@@H](CO)C(=O)N[C@H](CCC(N)=O)C(=O)N[C@@H](C(=O)N[C@H](C(=O)N[C@@H](CO)C(=O)N[C@H]1C(=O)N[C@@H](CCCCNS(=O)(=O)c2ccc(-c3c4ccc(=[N+](CC)CC)cc-4oc4cc(N(CC)CC)ccc34)c(S(=O)(=O)[O-])c2)C(=O)N[C@@H](CCCNC(=N)N)C(=O)N[C@@H]([C@@H](C)CC)C(=O)O[C@H]1C)[C@@H](C)CC)[C@@H](C)CC`, for which the MIC in assay [4] came to 8 µg/mL (≈ 4.34 µM); in [5], 4 µg/mL (≈ 2.17 µM); in assay [6] it was 8 µg/mL (≈ 4.34 µM); in [7], 4 µg/mL (≈ 2.17 µM); in [8] it was 8 µg/mL (≈ 4.34 µM).
`CN[C@H](CC(C)C)C(=O)N[C@H]1C(=O)N[C@@H](CC(N)=O)C(=O)N[C@H]2C(=O)N[C@H]3C(=O)N[C@H](C(=O)N[C@H](C(=O)O)c4cc(O)cc(O)c4-c4cc3ccc4O)[C@H](O)c3ccc(c(Cl)c3)Oc3cc2cc(c3O[C@@H]2O[C@H](CO)[C@@H](O)[C@H](O)[C@H]2O[C@H]2C[C@](C)(N)[C@H](O)[C@H](C)O2)Oc2ccc(cc2Cl)[C@H]1O` [VANCOMYCIN]: the ED50 in assay [9] turned out to be 2.75 mg/kg.
